These results are taken from patent US20250289817A1, “SEROTONIN RECEPTOR MODULATORS AND METHODS OF MAKING AND USING THE SAME” (Kuleon LLC, priority 2022, published 2025).

By EC50 is commonly meant the midpoint of the concentration-response curve. Low readings indicate a more potent agent, high ones a less potent agent. As a reminder, the Emax is the size of the effect at its maximum, as opposed to the concentration needed.

For test [1], the target named is T1, 5-HT2A (Homo sapiens, UniProt P28223).
T1 construct: expressed in transfected cells; host or cells: HEK293T
As to the kind of experiment: Gq activation via Gq/γ1 dissociation BRET, 5-HT2A. The format is cell-based. The following applies: HEK293T cells; for EC50: Gq dissociation BRET2, 1 hour at 37° C.; for Emax: HEK-293T, Gq dissociation BRET2, normalized to % 5-HT stimulation. An excerpt:
(§1) To measure 5-HT2 receptor-mediated Gq activation via Gq/y1 dissociation as measured by Bioluminescence Resonance Energy Transfer (BRET) (McCorvy JD, Wacker D, Wang S, Agegnehu B, Liu J, Lansu K, Tribo A R, Olsen R HJ, Che T, Jin J, Roth B L. Structural determinants of 5-HT2B receptor activation and biased agonism. Nat Struct Mo/ Biol. 2018; 25(9): 787-96), HEK293T cells were sub-cultured in Dulbecco's Modified Eagle Medium (DMEM) supplemented with 10% dialyzed fetal bovine serum (FBS) and were co-transfected in a 1:1:1:1 ratio with Rluc8-fused human Gaq (Gaq-Rluc8), a GFP2-fused to the C-terminus of human Gy1(Gy1-GFP2), human G131, and 5-HT2 receptor using TransiT-2020. After at least 18-24 hours, transfected cells were plated in poly-lysine coated 96-well white clear bottom cell culture plates in DMEM containing 1% dialyzed FBS at a density of 25,000-40,000 cells in 200 μL per well and incubated overnight. The following day, medium was decanted, and cells were washed with 60 μL of drug buffer (1×HBSS, 20 mM HEPES, pH 7.4), then 60 μL of drug buffer was added per well. Cells were pre-incubated at in a humidified atmosphere at 37° C. before receiving drug stimulation. Drug stimulation utilized 30 μL addition of drug (3×) diluted in McCorvy buffer (1×HBSS, 20 mM HEPES, pH 7.4, supplemented with 0.3% BSA fatty acid free, 0.03% ascorbic acid) and plates were incubated at for 1 hour at 37° C. Substrate addition occurred 15 minutes before reading and utilized 10 μL of the Rluc substrate coelenterazine 400a for Gq dissociation BRET^2 (Prolume/Nanolight, 5 μM final concentration). Plates were read for luminescence at 400 nm and fluorescent GFP2 emission at 510 nm at 1 second per well using a Mithras LB940 multimode microplate reader (e.g. one provided by Berthold). The BRET ratios of fluorescence/luminescence were calculated per well and were plotted as a function of drug concentration using Graphpad Prism 8 (Graphpad Software Inc., San Diego, CA). Data were normalized to % 5-HT stimulation and analyzed using nonlinear regression “log(agonist) vs. response” to yield Emax and EC50 parameter estimates. Results are shown in Table 8, where A=<10; B=10 to <100; C=100 to 1000 and D=>1000; +++=>70%; ++=50 to 70%; and +=<50%; NC=not calculated. […] Hallucinogenic (“Hall”) or non-hallucinogenic (“N-Hall”) plastogenic effect is predicted for compounds based on the level 5-HT2A agonist efficacy.
Background: In BRET a luciferase serves as donor, and the signal depends on an acceptor being close.

A further test concerns the target T2, 5-HT2B (Homo sapiens, UniProt P41595).
T2 construct: expressed in transfected cells; host or cells: HEK293T
Kind of test: Gq activation via Gq/γ1 dissociation BRET, 5-HT2B. The format is cell-based. The conditions noted are these: HEK293T cells, AT* = data suggests antagonistic effect at 5-HT2B (footnote); for Emax: HEK-293T, Gq dissociation BRET2, normalized to % 5-HT stimulation.
Description: as §1

The target in test [2] is T3, 5-HT2C (Homo sapiens, UniProt P28335).
T3 sequence (P28335 33-458): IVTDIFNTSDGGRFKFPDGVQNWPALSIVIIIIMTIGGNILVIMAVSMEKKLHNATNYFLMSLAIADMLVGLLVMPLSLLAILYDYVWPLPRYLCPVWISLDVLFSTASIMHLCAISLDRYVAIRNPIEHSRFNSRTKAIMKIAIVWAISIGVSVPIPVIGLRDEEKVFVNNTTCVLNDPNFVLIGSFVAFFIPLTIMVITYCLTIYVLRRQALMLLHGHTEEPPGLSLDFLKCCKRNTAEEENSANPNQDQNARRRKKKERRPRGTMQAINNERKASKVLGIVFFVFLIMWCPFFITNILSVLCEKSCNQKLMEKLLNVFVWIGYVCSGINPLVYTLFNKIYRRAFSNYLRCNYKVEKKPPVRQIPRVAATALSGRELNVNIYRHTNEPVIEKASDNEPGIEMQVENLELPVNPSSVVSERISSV
Kind of test: Gq signaling bias for 5-HT2C (Gq-coupled versus B-arrestin signaling). The format is cell-based. The following applies: primary signaling for 5-HT2C via Gq-coupled mechanism compared to B-arrestin.
Description: as §1

The target of test [3] is T1, 5-HT2A. Kind of test: Predicted hallucinogenic or non-hallucinogenic plastogenic effect based on 5-HT2A agonist efficacy. The following applies: hallucinogenic (Hall) or non-hallucinogenic (N-Hall) plastogenic effect predicted from level of 5-HT2A agonist efficacy.
Description: as §1

Test [4] has as its target T3, 5-HT2C. Kind of test: Gq activation via Gq/γ1 dissociation BRET, 5-HT2C. On the set-up: expressed in transfected cells; host or cells: HEK293T. The format is cell-based. The conditions noted are these: for Emax: HEK-293T, read-out: 5-HT2C Emax (%).
Description: as §1

[5] abbreviates: Gq dissociation BRET2, 1 hour at 37° C.

T1 sequence (P28223 whole entry): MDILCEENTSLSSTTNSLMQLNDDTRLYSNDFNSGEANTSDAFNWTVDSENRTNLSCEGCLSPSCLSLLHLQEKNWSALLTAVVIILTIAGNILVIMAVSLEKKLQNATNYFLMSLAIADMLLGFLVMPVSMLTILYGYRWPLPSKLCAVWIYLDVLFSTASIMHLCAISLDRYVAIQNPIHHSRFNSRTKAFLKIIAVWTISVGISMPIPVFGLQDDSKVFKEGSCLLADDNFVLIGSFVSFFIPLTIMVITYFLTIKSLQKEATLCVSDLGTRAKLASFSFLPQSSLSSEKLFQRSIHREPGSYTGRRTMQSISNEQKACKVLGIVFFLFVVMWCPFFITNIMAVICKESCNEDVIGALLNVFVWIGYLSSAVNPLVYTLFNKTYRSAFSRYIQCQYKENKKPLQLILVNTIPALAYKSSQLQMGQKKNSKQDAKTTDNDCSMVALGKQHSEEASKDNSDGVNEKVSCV
T2 sequence (P41595 whole entry): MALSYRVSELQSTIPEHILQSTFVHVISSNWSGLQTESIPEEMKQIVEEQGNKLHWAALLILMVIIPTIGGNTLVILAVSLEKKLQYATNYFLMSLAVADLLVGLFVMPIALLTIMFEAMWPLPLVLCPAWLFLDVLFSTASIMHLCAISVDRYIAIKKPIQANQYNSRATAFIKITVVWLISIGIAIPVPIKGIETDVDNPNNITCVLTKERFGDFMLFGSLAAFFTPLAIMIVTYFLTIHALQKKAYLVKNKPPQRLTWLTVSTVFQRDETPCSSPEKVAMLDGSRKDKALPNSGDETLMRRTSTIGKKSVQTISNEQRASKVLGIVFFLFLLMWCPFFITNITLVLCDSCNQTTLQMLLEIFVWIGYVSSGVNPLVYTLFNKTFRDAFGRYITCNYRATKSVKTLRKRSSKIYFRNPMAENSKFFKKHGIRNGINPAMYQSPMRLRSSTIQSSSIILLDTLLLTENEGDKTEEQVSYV

With `CN1CC(c2csc3ccccc23)C1.Cl`, the figures for the EC50 on 5-HT2A [1], on 5-HT2B (setting [5]) and at 5-HT2C [4] were > 1000 nM, 100 to 1000 nM and 10 to 100 nM, respectively. For the same compound, the maximal effect (Emax) is < 50% on 5-HT2A [1], < 50% on 5-HT2B and > 70% on 5-HT2C [4]. In addition, the “Gq signaling bias?” value at 5-HT2C [2] is reported as “Yes”. The “Hall or N-Hall?” value at 5-HT2A [3] is given as “N-Hall”.
As to `CN1CC=C(c2csc3cc(F)ccc23)C1`, on 5-HT2A [1], the EC50 was 100 to 1000 nM and the Emax was < 50%. Further, the “5-HT2B EC50 (nM)” value at 5-HT2B (setting [5]) was “AT*”. Moreover, on 5-HT2C [4], the EC50 lay within 10 to 100 nM and the Emax was 50 to 70%.
As to `C1=C(c2c[nH]c3ncccc23)CNC1`, the Emax on 5-HT2A [1], at 5-HT2B and at 5-HT2C [4] was < 50% each time. In addition, at 5-HT2C [2], the “Gq signaling bias?” value is “No”. The “Hall or N-Hall?” value at 5-HT2A [3] is “N-Hall”.
For `Cl.c1ccc2c(C3CCNC3)csc2c1` (stereo not shown), the EC50 on 5-HT2A [1] was 100 to 1000 nM; at 5-HT2C [4] it was 10 to 100 nM. Besides, the Emax on 5-HT2A [1] was 50 to 70%; at 5-HT2B, < 50%; at 5-HT2C [4], > 70%. The “Gq signaling bias?” value on 5-HT2C [2] is on record as “Yes”. In addition, the “Hall or N-Hall?” value at 5-HT2A [3] was “N-Hall”.
In the case of `C1=C(c2csc3ccccc23)CNC1`, the EC50 at 5-HT2A [1] was 10 to 100 nM; on 5-HT2C [4], < 10 nM. The maximal effect (Emax) at 5-HT2A [1] was > 70%; at 5-HT2B it was < 50%; on 5-HT2C [4], > 70%. The “Gq signaling bias?” value at 5-HT2C [2] is reported as “Yes”. For the same compound, the “Hall or N-Hall?” value at 5-HT2A [3] is “Hall”.
With `Fc1cnc2[nH]cc(C3=CCNC3)c2c1`, the EC50 was in the range of 100 to 1000 nM at 5-HT2A [1], 100 to 1000 nM at 5-HT2B (setting [5]) and 10 to 100 nM on 5-HT2C [4]. Further, the Emax at 5-HT2A [1], at 5-HT2B and on 5-HT2C [4] was > 70% throughout. Besides, the “Gq signaling bias?” value on 5-HT2C [2] is “No”. Moreover, on 5-HT2A [3], the “Hall or N-Hall?” value is “Hall”.
On to `CN1CC=C(c2csc3ccccc23)C1`, for which the EC50 at 5-HT2A [1] is 10 to 100 nM; at 5-HT2B (setting [5]), > 1000 nM; at 5-HT2C [4], < 10 nM. Further, the Emax was 50 to 70% on 5-HT2A [1], < 50% on 5-HT2B and > 70% on 5-HT2C [4].
